Test results as given in article PMC9000418 (Molecules, 2022).
Like-named read-outs stand apart in the source and are kept apart here.

Key:
BChE = assay type: biochemical
Description: The inhibitory activities of all of the obtained chalcone derivatives (3a–3j) against cholinesterase enzymes were evaluated using the previously described in vitro modified Ellman’s spectrophotometric method.
The assay was completed in two steps. […].
[…]. The reagents and materials used in the enzyme inhibition assay were supplied commercially by Sigma-Aldrich (St. Louis, MO, USA) and Fluka (Steinheim, Germany). The cholinesterase enzyme inhibition procedure was applied as reported in our previous research papers.

AChE = AChE (Electrophorus electricus, UniProt O42275); assay: AChE inhibition, in vitro modified Ellman's spectrophotometric method; assay type: biochemical; settings: read-out: AChE % Inhibition
Excerpt: The assay was completed in two steps.
The reagents and materials used in the enzyme inhibition assay were supplied commercially by Sigma-Aldrich (St. Louis, MO, USA) and Fluka (Steinheim, Germany). The cholinesterase enzyme inhibition procedure was applied as reported in our previous research papers.

[1] = Cytotoxicity MTT assay in NIH/3T3 cell line; assay type: cell-based; settings: mouse, NIH/3T3 mouse embryonic fibroblast cells, read-out: IC50 against NIH/3T3 cells (cytotoxicity)
Description: The NIH/3T3 mouse embryonic fibroblast cell line (ATCC® CRL-1658™, London, UK) was used for cytotoxicity assays. The incubation period of NIH/3T3 cells was based on the supplier’s recommendation. NIH/3T3 cells were seeded at 1 × 10^4 cells into each well of the 96-well plates. The MTT assay was carried out in accordance with the standards previously described.

[2] = DPPH free radical scavenging antioxidant activity
Excerpt: This activity method is a method based on measuring the scavenging effects of the DPPH• (1,1-Diphenyl-2-picrylhydrazil) radical, which is a stable organic nitrogen radical of antioxidants. One of the few stable organic nitrogen radicals, the DPPH• radical is dark violet in color. This method, which is based on the scavenging of the DPPH radical via antioxidants, is a redox reaction. When this radical interacts with hydrogen donors, it is reduced to hydrazine. The dark purple color of the methanolic DPPH• solution turns yellow with the addition of antioxidants, and the change in absorbance is measured spectrophotometrically. More illumination is determined by a greater reduction in the absorbance of the reaction mixture and indicates higher radical scavenging capacity.
For the DPPH free radical scavenging activity test, test compounds were prepared at 10 µM, 1 µM, 0.1 µM, and 0.01 µM concentrations, as shown in Figure 3. By using the absorbance changes determined because of the spectroscopic measurement, the % DPPH free radical scavenging activities of the synthesized compounds and reference materials (ascorbic acid and citric acid) were determined. The % antioxidant activities of all tested compounds were calculated based on the control.
This is a method based on measuring the scavenging effects of the DPPH (1,1-Diphenyl-2- picrylhydrazyl) radical, a stable organic nitrogen-centered free radical. To prepare the DPHH solution, 9.86 mg of DPPH was measured and topped up to 25 mL with methanol. A total of 100 µL of DPPH solution and 100 µL of the test solutions were placed in the test wells. Only 200 µL of methanol was used for blank reading; 100 µL of methanol and 100 µL of DPPH solution were used for control. After incubation, spectrophotometric reading was performed at 517 nm.

[3] = In vitro BBB permeability assay (PAMPA); assay type: in vitro ADME; settings: for Type of BBB Permeation: PAMPA, PBS pH 7.4, donor 100 μM; for BBB permeability (in words): in vitro PAMPA
Description: As it is known, the ability of drugs to be used in diseases related to the central nervous system to pass the blood–brain barrier is an indispensable feature. These properties of the synthesized compounds were estimated using physicochemical parameters. […].
To observe the BBB permeability of the active compounds 3i and 3j, the parallel artificial membrane permeability assay (PAMPA) was performed as previously described. Briefly, the solutions of each compound were prepared in dimethyl sulfoxide (DMSO) at 10 mM and then diluted with PBS (Phosphate-Buffered Saline; pH = 7.4) to obtain the donor drug solution with the nominal final concentration of 100 μM (297 μL of buffer + 3 μL of DMSO drug solution). An amount of 100 μM is suitable for direct HPLC-DAD measurements. This solution was shaken for 1 h at room temperature in a 96-well polypropylene plate (Agilent, Waldbronn, Germany) and then filtered to avoid solid particles. The data were measured in 3 replicates on each plate. After the preparation of the solutions, the assay procedure was performed according to the kit method.

Chain of AChE (O42275 24-633): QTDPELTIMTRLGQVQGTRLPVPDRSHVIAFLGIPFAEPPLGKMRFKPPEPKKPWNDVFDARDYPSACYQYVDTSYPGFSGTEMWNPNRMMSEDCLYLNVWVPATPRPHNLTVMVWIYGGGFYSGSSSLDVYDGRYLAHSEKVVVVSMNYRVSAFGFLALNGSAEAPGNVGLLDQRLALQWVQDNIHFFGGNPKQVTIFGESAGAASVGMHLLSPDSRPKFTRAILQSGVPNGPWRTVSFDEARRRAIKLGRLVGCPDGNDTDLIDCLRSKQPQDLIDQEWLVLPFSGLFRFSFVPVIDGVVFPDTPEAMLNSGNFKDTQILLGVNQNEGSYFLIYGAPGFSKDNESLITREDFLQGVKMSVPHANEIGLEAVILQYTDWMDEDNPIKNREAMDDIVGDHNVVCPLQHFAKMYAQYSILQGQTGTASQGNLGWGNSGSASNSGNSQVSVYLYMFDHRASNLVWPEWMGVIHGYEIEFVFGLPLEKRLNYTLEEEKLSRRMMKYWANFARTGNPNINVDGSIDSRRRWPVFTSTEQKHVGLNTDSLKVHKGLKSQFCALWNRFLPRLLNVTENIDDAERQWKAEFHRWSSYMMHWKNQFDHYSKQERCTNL

## CC(C)CNc1nnc(SCC(=O)c2ccc3c(c2)NC(=O)CS3)s1 [Compound 3e, 6-(2-((5-(Isobutylamino)-1,3,4-thiadiazol-2-yl)sulfanyl)acetyl)-2H-benzo[b][1,4]thiazin-3(4H)-one]
BChE; 10^−3 M
  BChE % Inhibition: 37.3 ± 0.8%
BChE; 10^−4 M
  BChE % Inhibition: 24.6 ± 0.9%
AChE
  inhibition at 100 µM: 46.2 ± 0.8%
  inhibition at 1000 µM: 69.9 ± 1.2%

## COc1ccc(Nc2nnc(SCC(=O)c3ccc4c(c3)NC(=O)CS4)s2)cc1 [Compound 3i, 6-(2-((5-((4-Methoxyphenyl)amino)-1,3,4-thiadiazol-2-yl)sulfanyl)acetyl)-2H-benzo[b][1,4]thiazin-3(4H)-one]
BChE; 10^−3 M
  BChE % Inhibition: 40.2 ± 0.9%
BChE; 10^−4 M
  BChE % Inhibition: 28.0 ± 0.8%
[1]
  IC50: 98.3 ± 3.98 µM
[2]; 0.01 µM
  % DPPH free radical scavenging (inhibition): 65.00% ± 1.10
[2]; 0.1 µM
  % DPPH free radical scavenging (inhibition): 75.00% ± 1.80
[2]; 1 µM
  % DPPH free radical scavenging (inhibition): 82.00% ± 1.20
[2]; 10 µM
  % DPPH free radical scavenging (inhibition): 90.00% ± 2.40
[3]
  Type of BBB Permeation: CNS+ High BBB permeation (High BBB permeation Pe (10^−6 cm s^−1) > 4.0)
  BBB permeability (in words): high BBB permeability
AChE
  inhibition at 100 µM: 90.5 ± 1.1%
  inhibition at 1000 µM: 93.2 ± 1.4%

## Cc1ccc(Nc2nnc(SCC(=O)c3ccc4c(c3)NC(=O)CS4)s2)cc1 [Compound 3h, 6-(2-((5-(p-Tolylamino)-1,3,4-thiadiazol-2-yl)sulfanyl)acetyl)-2H-benzo[b][1,4]thiazin-3(4H)-one]
BChE; 10^−3 M
  BChE % Inhibition: 35.6 ± 0.7%
BChE; 10^−4 M
  BChE % Inhibition: 23.5 ± 0.7%
AChE
  inhibition at 100 µM: 42.7 ± 0.8%
  inhibition at 1000 µM: 82.2 ± 1.8%

## CCNc1nnc(SCC(=O)c2ccc3c(c2)NC(=O)CS3)s1 [Compound 3a, 6-(2-((5-(Ethylamino)-1,3,4-thiadiazol-2-yl)sulfanyl)acetyl)-2H-benzo[b][1,4]thiazin-3(4H)-one]
BChE; 10^−3 M
  BChE % Inhibition: 31.8 ± 0.8%
BChE; 10^−4 M
  BChE % Inhibition: 25.1 ± 0.8%
AChE
  inhibition at 100 µM: 48.8 ± 0.8%
  inhibition at 1000 µM: 78.2 ± 1.2%

## O=C1CSc2ccc(C(=O)CSc3nnc(Nc4ccc(Cl)cc4)s3)cc2N1 [Compound 3j, 6-(2-((5-((4-chlorophenyl)amino)-1,3,4-thiadiazol-2-yl)sulfanyl)acetyl)-2H benzo[b][1,4]thiazin-3(4H)-one]
BChE; 10^−3 M
  BChE % Inhibition: 42.5 ± 0.9%
BChE; 10^−4 M
  BChE % Inhibition: 27.9 ± 0.7%
[1]
  IC50: 160 ± 5.53 µM
[2]; 0.01 µM
  % DPPH free radical scavenging (inhibition): 68.00% ± 1.50
[2]; 0.1 µM
  % DPPH free radical scavenging (inhibition): 73.00% ± 1.40
[2]; 1 µM
  % DPPH free radical scavenging (inhibition): 85.00% ± 2.00
[2]; 10 µM
  % DPPH free radical scavenging (inhibition): 92.00% ± 1.80
[3]
  Type of BBB Permeation: CNS+ High BBB permeation (High BBB permeation Pe (10^−6 cm s^−1) > 4.0)
  BBB permeability (in words): high BBB permeability
AChE
  inhibition at 100 µM: 92.3 ± 1.3%
  inhibition at 1000 µM: 96.5 ± 1.2%

## O=C1CSc2ccc(C(=O)CSc3nnc(NC4CCCCC4)s3)cc2N1 [Compound 3f, 6-(2-((5-(Cyclohexylamino)-1,3,4-thiadiazol-2-yl)sulfanyl)acetyl)-2H-benzo[b][1,4]thiazin-3(4H)-one]
BChE; 10^−3 M
  BChE % Inhibition: 30.5 ± 0.8%
BChE; 10^−4 M
  BChE % Inhibition: 26.2 ± 0.8%
AChE
  inhibition at 100 µM: 45 ± 1%
  inhibition at 1000 µM: 65.4 ± 1.3%

## O=C1CSc2ccc(C(=O)CSc3nnc(Nc4ccccc4)s3)cc2N1 [Compound 3g, 6-(2-((5-(Phenylamino)-1,3,4-thiadiazol-2-yl)sulfanyl)acetyl)-2H-benzo[b][1,4]thiazin-3(4H)-one]
BChE; 10^−3 M
  BChE % Inhibition: 39.6 ± 0.9%
BChE; 10^−4 M
  BChE % Inhibition: 24.8 ± 0.8%
AChE
  inhibition at 100 µM: 44.5 ± 0.8%
  inhibition at 1000 µM: 80.1 ± 1.2%

## CCCNc1nnc(SCC(=O)c2ccc3c(c2)NC(=O)CS3)s1 [Compound 3b, 6-(2-((5-(Propylamino)-1,3,4-thiadiazol-2-yl)sulfanyl)acetyl)-2H-benzo[b][1,4]thiazin-3(4H)-one]
BChE; 10^−3 M
  BChE % Inhibition: 34.9 ± 0.8%
BChE; 10^−4 M
  BChE % Inhibition: 26.9 ± 0.6%
AChE
  inhibition at 100 µM: 45.6 ± 0.9%
  inhibition at 1000 µM: 75.4 ± 1.4%

## CCCCNc1nnc(SCC(=O)c2ccc3c(c2)NC(=O)CS3)s1 [Compound 3d, 6-(2-((5-(Butylamino)-1,3,4-thiadiazol-2-yl)sulfanyl)acetyl)-2H-benzo[b][1,4]thiazin-3(4H)-one]
BChE; 10^−3 M
  BChE % Inhibition: 36.1 ± 0.9%
BChE; 10^−4 M
  BChE % Inhibition: 21.4 ± 0.9%
AChE
  inhibition at 100 µM: 47.3 ± 0.9%
  inhibition at 1000 µM: 72.7 ± 1.5%

## CC(C)Nc1nnc(SCC(=O)c2ccc3c(c2)NC(=O)CS3)s1 [Compound 3c, 6-(2-((5-(Isopropylamino)-1,3,4-thiadiazol-2-yl)sulfanyl)acetyl)-2H-benzo[b][1,4]thiazin-3(4H)-one]
BChE; 10^−3 M
  BChE % Inhibition: 29.1 ± 0.8%
BChE; 10^−4 M
  BChE % Inhibition: 20.4 ± 0.7%
AChE
  inhibition at 100 µM: 40.1 ± 0.9%
  inhibition at 1000 µM: 70.6 ± 1%
